Test results: US11759456B2, “Pharmaceutical composition” (KOWA COMPANY, LTD., priority 2017, dated 2023)

Assay: Laser Diffraction Measurement of Particle Size of primary particles
Type: physicochemical
Settings: pemafibrate used in Test Examples; Japanese Pharmacopoeia 17th Edition laser diffraction

In the case of CC[C@@H](Oc1cccc(CN(CCCOc2ccc(OC)cc2)c2nc3ccccc3o2)c1)C(=O)O [pemafibrate, (2R)-2-[3-([1,3-Benzoxazol-2-yl[3-(4-methoxyphenoxy)propyl]amino]methyl)phenoxy]butanoic acid], the “d50 value (average particle diameter of primary particles)” value is reported as no more than 100 μm and the “d90 value (average particle diameter of primary particles)” value is reported as no more than 200 μm.
